Assays:
Assay type in all cases: functional
Oryza sativa [1] = assay: Growth regulating activity in Oryza sativa (rice) Bahia cultivar seedlings assessed as interior angle between leaf lamina of second leaf and its leaf sheath at 1 ug/plant applied onto second lamina joint of plant sheath measured after 2 days by Oryza sativa lamina inclination test
Oryza sativa [2] = assay: Growth regulating activity in Oryza sativa (rice) Bahia cultivar seedlings assessed as interior angle between leaf lamina of second leaf and its leaf sheath at 0.01 ug/plant applied onto second lamina joint of plant sheath measured after 2 days by Oryza sativa lamina inclination test
Oryza sativa [3] = assay: Growth regulating activity in Oryza sativa (rice) Bahia cultivar seedlings assessed as interior angle between leaf lamina of second leaf and its leaf sheath at 0.1 ug/plant applied onto second lamina joint of plant sheath measured after 2 days by Oryza sativa lamina inclination test
Oryza sativa [4] = assay: Growth regulating activity in Oryza sativa (rice) Bahia cultivar seedlings assessed as interior angle between leaf lamina of second leaf and its leaf sheath at 0.05 ug/plant applied onto second lamina joint of plant sheath measured after 2 days by Oryza sativa lamina inclination test
Oryza sativa [5] = assay: Growth regulating activity in Oryza sativa (rice) Bahia cultivar seedlings assessed as interior angle between leaf lamina of second leaf and its leaf sheath at 0.5 ug/plant applied onto second lamina joint of plant sheath measured after 2 days by Oryza sativa lamina inclination test
Oryza sativa [6] = assay: Growth regulating activity in Oryza sativa (rice) Bahia cultivar seedlings assessed as interior angle between leaf lamina of second leaf and its leaf sheath at 0.02 ug/plant applied onto second lamina joint of plant sheath measured after 2 days by Oryza sativa lamina inclination test

Structure (SMILES) | Activity (Oryza sativa [1]) [degree] | Activity (Oryza sativa [2]) [degree] | Activity (Oryza sativa [3]) [degree] | Activity (Oryza sativa [4]) [degree] | Activity (Oryza sativa [5]) [degree] | Activity (Oryza sativa [6]) [degree]
CC[C@@H](C(C)C)[C@H](O)[C@@H](O)[C@@H](C)[C@H]1CC[C@H]2[C@@H]3COC(=O)[C@H]4C[C@H](N)CC[C@]4(C)[C@H]3CC[C@]12C | 5 | – | – | – | – | –
CC[C@@H](C(C)C)[C@@H](O)[C@H](O)[C@@H](C)[C@H]1CC[C@H]2[C@@H]3CC(=O)[C@H]4C[C@H](O)CC[C@]4(C)[C@H]3CC[C@]12C | 85 | 46 | 59 | 65 | 76 | –
CC[C@@H](C(C)C)[C@@H](O)[C@H](O)[C@@H](C)[C@H]1CC[C@H]2[C@@H]3COC(=O)[C@H]4C[C@H](N)CC[C@]4(C)[C@H]3CC[C@]12C | 55 | – | 16 | – | 31 | –
CC[C@@H](C(C)C)[C@H](O)[C@@H](O)[C@@H](C)[C@H]1CC[C@H]2[C@@H]3CC(=O)[C@H]4C[C@H](N)CC[C@]4(C)[C@H]3CC[C@]12C | 3 | – | – | – | – | –
CC[C@@H](C(C)C)[C@@H](O)[C@H](O)[C@@H](C)[C@H]1CC[C@H]2[C@@H]3CC(=O)[C@H]4C[C@H](N)CC[C@]4(C)[C@H]3CC[C@]12C | 23 | – | – | – | – | –
CC[C@@H](C(C)C)[C@H](O)[C@@H](O)[C@@H](C)[C@H]1CC[C@H]2[C@@H]3COC(=O)[C@H]4C[C@H](N=[N+]=[N-])CC[C@]4(C)[C@H]3CC[C@]12C | 48 | – | – | – | 17 | –
CC[C@@H](C(C)C)[C@@H](O)[C@H](O)[C@@H](C)[C@H]1CC[C@H]2[C@@H]3COC(=O)[C@H]4C[C@H](N=[N+]=[N-])CC[C@]4(C)[C@H]3CC[C@]12C | 106 | 37 | 86 | 74 | 94 | 44
CC[C@@H](C(C)C)[C@H](O)[C@@H](O)[C@@H](C)[C@H]1CC[C@H]2[C@@H]3CC(=O)[C@H]4C[C@H](N=[N+]=[N-])CC[C@]4(C)[C@H]3CC[C@]12C | 1 | – | – | – | – | –
CC[C@@H](C(C)C)[C@@H](O)[C@H](O)[C@@H](C)[C@H]1CC[C@H]2[C@@H]3CC(=O)[C@H]4C[C@H](N=[N+]=[N-])CC[C@]4(C)[C@H]3CC[C@]12C | 75 | 17 | 30 | 24 | 64 | –
